Activity calls are given as the source filed them. No cut-off for these calls is given here.
Legend:
Format in all cases: functional, cell-based
[1] = system: HepG2; experiment: Inhibition of CDCA-induced FXR expression in human HepG2 cells after 18 hrs by luminometric analysis
[2] = biological target: T1, Bile acid receptor (Homo sapiens) (UniProt Q96RI1); experiment: Antagonist activity at FXR in human HepG2 cells assessed as inhibition of CDCA-induced OSTalpha gene expression at 50 uM by real time PCR
T1 sequence (whole entry): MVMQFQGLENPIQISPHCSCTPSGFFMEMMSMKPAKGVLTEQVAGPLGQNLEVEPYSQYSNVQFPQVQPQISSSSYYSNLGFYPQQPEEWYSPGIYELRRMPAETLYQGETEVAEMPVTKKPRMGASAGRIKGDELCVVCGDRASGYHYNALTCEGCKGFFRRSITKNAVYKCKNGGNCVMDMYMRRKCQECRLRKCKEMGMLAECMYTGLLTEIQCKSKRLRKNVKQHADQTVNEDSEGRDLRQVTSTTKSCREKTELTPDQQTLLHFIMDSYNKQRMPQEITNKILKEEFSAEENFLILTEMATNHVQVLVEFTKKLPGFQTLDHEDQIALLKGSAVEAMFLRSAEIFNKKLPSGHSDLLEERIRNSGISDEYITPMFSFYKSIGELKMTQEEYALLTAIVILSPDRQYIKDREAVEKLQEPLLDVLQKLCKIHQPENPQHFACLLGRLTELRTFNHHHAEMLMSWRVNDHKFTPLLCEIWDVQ

[3] = biological target: T1, Bile acid receptor (Homo sapiens); experiment: Antagonist activity at FXR in human HepG2 cells assessed as inhibition of CDCA-induced BSEP gene expression at 50 uM by real time PCR
[4] = biological target: T1, Bile acid receptor (Homo sapiens); experiment: Antagonist activity at FXR in human HepG2 cells assessed as inhibition of CDCA-induced OSTbata gene expression at 50 uM by real time PCR
[5] = biological target: T1, Bile acid receptor (Homo sapiens); experiment: Antagonist activity at FXR expressed in human HepG2 cells assessed as stabilization of the NCoR at the OSTalpha promoter at 50 uM after 18 hrs by chromatin immunoprecipitation
[6] = biological target: T1, Bile acid receptor (Homo sapiens); experiment: Antagonist activity at FXR in human HepG2 cells assessed as inhibition of CDCA-induced Cyp7A1 gene expression at 50 uM by real time PCR

inhibition [2]: Active
inhibition [4]: Active
Activity [5]: Active
inhibition [6]: Active
SMILES: C[C@H](CO)[C@@H](C)CC[C@@H](COS(=O)(=O)O)[C@H]1CC[C@H]2[C@@H]3CC[C@@H]4[C@H](O)[C@H](OS(=O)(=O)O)CC[C@]4(C)[C@H]3CC[C@]12C
inhibition [1]: Dose-dependent effect
inhibition [3]: Active
